Experimental data published in US8084453B2, “Alkyl substituted indoloquinoxalines” (Oxypharma AB, priority 2004, dated 2011).

Columns and labels:
[1] = tested on: mAB/LPS-induced arthritic mice; test: mAb/LPS-induced arthritis in mice, hind paw thickness; format: in vivo; conditions: for Mean group values of hind paw thickness, day 0: day 0 (base-line); for Mean group values of hind paw thickness, day 0 / Mean group values of hind paw thickness, day 7 / Mean group values of hind paw thickness, day 9 / Mean group values of hind paw thickness, day 11: once daily (day 0-5) repeated subcutaneous administration; for Hind paw thickness vs vehicle control (corn oil): comparison with vehicle control (corn oil)
Description: Collagen-induced arthritis (CIA) in mice is widely used as an experimental model for rheumatoid arthritis (RA) in humans. CIA is mediated by autoantibodies which bind to a particular region of type II collagen, such as CB11 (CNBr-digested fragment of type II collagen).
Antibody-mediated CIA can be induced by iv injection of a combination of 4 different monoclonal antibodies (Arthrogen-CIA® mAb) generated by Arthrogen-CIA® mouse B-hybridoma cell lines.
Three of the mAbs recognize autoantigenic epitopes clustered within an 84 amino acid residue fragment, LyC2 (the smallest arthritogenic fragment of type II collagen) of CB11 and the fourth mAb reacts with LyC1 (FIG. 1). Importantly, all 4 mAbs recognize the conserved epitopes shared by various species of type II collagen and crossreact with homologous and heterologous type II collagen.
A cocktail of 4 monoclonal antibodies are used. These arthritogenic mAbs alone or in combination with bacterial LPS can induce severe arthritis within days instead of weeks (classic CIA model).
(A) A cocktail of 4 monoclonal antibodies to type II collagen (2 mg) is injected intravenously on day 0 followed by an intraperitoneal injection of LPS (50 μg) on day 3. Arthritis will develop on day 4 and reach its peak on day 7-8. The therapeutic effects of test compounds will be determined on day 7. […] formation and bone degradation will be more significant on day 14 and day 21 (not shown). (B) Authentic collagen-induced arthritis.
Measurement of arthritis. Hind paw thickness, left and right of each animal (9 animals in each group) was measured in mm on study days 0 (base-line), 7, 9 and 11 using a Mitutoyo Electronic Digital Caliper. […] Dexamethasone is a cortisone which suppresses inflammation and normal immune response, and is used systemically and locally to treat inflammatory disorders. Patients are for safety reasons treated with short courses of cortisones to bring the inflammation under control in the window between starting the DMARD or DMARD combination and the likely response time.
FIG. 3. Mean group values (mm) of hind paw thickness measured throughout the entire 11-day observation period in the mAB/LPS-induced arthritic mice following once daily (day 0-5) repeated subcutaneous administration of B-220 analogues, Dexamethasone (positive control) or corn oil (negative control).

EAE model = conditions: prior art patents; cited from earlier work
[2] = tested on: collagen-induced arthritis (CIA) model; conditions: prior art patents; cited from earlier work

| melting point [°C] | SMILES | Mean group values of hind paw thickness, day 0 [1] [mm] | Mean group values of hind paw thickness, day 7 [1] [mm] | Mean group values of hind paw thickness, day 9 [1] [mm] | Mean group values of hind paw thickness, day 11 [1] [mm] | treating MS in the EAE model (EAE model) | treating RA in the collagen-induced arthritis (CIA) model [2] | Hind paw thickness vs vehicle control (corn oil) [1] |
| --- | --- | --- | --- | --- | --- | --- | --- | --- |
|  | Cc1cc2nc3c4ccccc4n(CCN(C)C)c3nc2cc1C [Compound B-220, 2,3-dimethyl-6-(N,N-dimethylaminoethyl)-6H-indolo(2,3-b)quinoxaline, reference compound] | 2.2 | 3.1 | 3.0 | 2.8 | promising compound | promising compound |  |
| 316 to 319 | Cc1cc2nc3c4cc(F)ccc4n(CC(N)=O)c3nc2cc1C [Compound C, 2,3-Dimethyl-9-fluoro-indolo[2,3-b]quinoxaline-6-yl-acetamide] | 2.2 | 3.1 | 3.0 | 2.8 |  |  |  |
|  | Cc1cc2nc3c4cc(Cl)ccc4n(CC(=O)NCCN(C)C)c3nc2cc1C [Compound E, 9-Chloro-2,3-dimethyl-6-(N,N-dimethylaminoethylamino-2-oxoethyl)-6H-indolo-[2,3-b]quinoxaline] | 2.2 | 2.3 | 2.3 | 2.3 |  |  | highly significant lower |
| 269 to 271 | Cc1cc2nc3c4cc(F)ccc4n(CC(=O)NCCN)c3nc2cc1C [Compound H, 2,3-Dimethyl-6-(aminoethylamino-2-oxoethyl)-9-fluoro-6H-indolo[2,3-b]quinoxaline] | 2.2 | 2.5 | 2.5 | 2.5 |  |  | highly significant lower |
| 331 to 332 | Cc1cc2nc3c4cc(Cl)ccc4n(CC(=O)O)c3nc2cc1C [Compound K, 2,3-Dimethyl-9-chloro-indolo[2,3-b]quinoxaline-6-yl acetic acid] |  |  |  |  |  |  |  |
| 317 to 318 | Cc1cc2nc3c4cc(F)ccc4n(CC(=O)O)c3nc2cc1C [Compound L, 2,3-dimethyl-9-fluoro-indolo[2,3-b]quinoxaline-6-yl-acetic acid] |  |  |  |  |  |  |  |
|  | C[C@@H]1C[C@H]2[C@@H]3CCC4=CC(=O)C=C[C@]4(C)[C@@]3(F)[C@@H](O)C[C@]2(C)[C@@]1(O)C(=O)CO [Dexamethasone, reference compound] | 2.2 | 2.3 | 2.3 | 2.3 |  |  |  |
